Measured values published in ChEMBL document CHEMBL1201862, “PubChem BioAssay data set” (2004).
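Five concentrations, 48 hours, 96-well plates. GI50 is the concentration that inhibits growth by half.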 Active and inactive are the calls of the source. Rule as the data show it: active = GI50 up to about 1.1 µM and inactive = higher.

How the values were obtained:
Experiment in all cases: inhibition of tumour cell growth, NCI panel, 48 h
CCRF-CEM = system: CCRF-CEM
HOP-18 = system: HOP-18
HOP-92 = system: HOP-92
LOX IMVI = system: LOX IMVI
NCI-H460 = system: NCI-H460
RPMI-8226 = system: RPMI-8226
SK-MEL-5 = system: SK-MEL-5
UACC-257 = system: UACC-257

Measured: GI50

CCn1cnnc1-c1nsc2ccccc12
inactive: CCRF-CEM > 100 µM | HOP-18 > 100 µM | HOP-92 45.3 µM | LOX IMVI > 100 µM | NCI-H460 > 100 µM | RPMI-8226 > 100 µM | SK-MEL-5 83.8 µM | UACC-257 > 100 µM
